Data reported in patent US12180193B2, “Accelerating fibrosarcoma protein degrading compounds and associated methods of use” (Arvinas Operations, Inc., priority 2020, dated 2024).

Key:
[1] = target: T1, BRAF V600E (Homo sapiens, UniProt P15056, V600E); assay: Cellular assay of target protein degradation, T-Rex 293 cells stably transfected with HA-BRAF_V600E (HA immunofluorescence, high content imaging); assay type: cell-based; settings: T-Rex 293 HA-BRAF V600E; for DC50: half maximal degradation, read-out: BRaf V600E DC50; for Dmax: maximum degradation observed
T1 construct: expressed in transfected cells
How it was run: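 Doxycycline-induced (1 ng/mL) T-Rex 293 cells expressing HA-BRAF V600E treated 24 h at 37 °C with compound at 1 μM to 0.1 nM final in 0.1% DMSO. Remaining HA-tagged protein quantified by fixed-cell anti-HA immunofluorescence and high-content imaging; DC50 and Dmax (% of control) derived.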

[2] = target: T2, BRAF G466V (Homo sapiens, UniProt P15056, G466V); assay: Cellular assay of target protein degradation, T-Rex 293 cells stably transfected with HA-BRAF G466V (HA immunofluorescence, high content imaging); assay type: cell-based; settings: T-Rex 293 HA-BRAF G466V; for DC50: half maximal degradation, read-out: BRaf G466V DC50; for Dmax: maximum degradation observed
T2 construct: expressed in transfected cells
How it was run: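 Doxycycline-induced (0.75 ng/mL) cells treated 24 h at 37 °C with compound from 30 nM to 3 pM (0.1% DMSO). After fixation and permeabilisation, HA-tagged BRAF G466V immunostained and quantified by high-content imaging. DC50 and Dmax (percent of control) derived.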

T2 sequence (P15056 whole entry G466V): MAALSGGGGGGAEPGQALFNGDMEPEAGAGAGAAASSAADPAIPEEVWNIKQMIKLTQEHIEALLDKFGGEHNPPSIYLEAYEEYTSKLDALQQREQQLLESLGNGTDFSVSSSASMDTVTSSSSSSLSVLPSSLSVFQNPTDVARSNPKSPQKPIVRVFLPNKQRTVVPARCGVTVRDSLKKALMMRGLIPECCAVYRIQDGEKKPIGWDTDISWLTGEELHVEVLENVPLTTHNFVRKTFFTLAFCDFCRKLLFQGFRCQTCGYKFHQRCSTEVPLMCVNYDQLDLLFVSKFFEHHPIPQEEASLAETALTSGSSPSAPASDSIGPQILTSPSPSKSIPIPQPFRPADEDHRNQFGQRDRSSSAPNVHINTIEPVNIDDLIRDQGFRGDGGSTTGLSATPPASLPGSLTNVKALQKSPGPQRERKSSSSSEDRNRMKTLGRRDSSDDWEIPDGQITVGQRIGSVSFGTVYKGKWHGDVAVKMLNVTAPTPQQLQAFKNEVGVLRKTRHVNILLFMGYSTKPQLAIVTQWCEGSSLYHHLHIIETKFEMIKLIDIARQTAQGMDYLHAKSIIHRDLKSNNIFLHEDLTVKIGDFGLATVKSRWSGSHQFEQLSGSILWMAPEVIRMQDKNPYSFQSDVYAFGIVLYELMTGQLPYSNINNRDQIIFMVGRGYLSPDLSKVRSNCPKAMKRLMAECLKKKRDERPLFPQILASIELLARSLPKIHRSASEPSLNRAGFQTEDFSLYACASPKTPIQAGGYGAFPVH
T1 sequence (P15056 whole entry V600E): as the sequence (P15056 whole entry G466V) above, with V466G, V600E counted along it

SMILES	DC50 [1]	Dmax [1]	DC50 [2]	Dmax [2]
O=C1CCC(N2Cc3cc(N4CCC(N5CCN(CC6CN(c7ccc(-c8cnc9[nH]cc(C(=O)c%10c(F)ccc(NS(=O)(=O)N%11CC[C@@H](F)C%11)c%10F)c9c8)cc7)C6)CC5)CC4)ccc3C2=O)C(=O)N1 (stereo partly drawn) [Compound 144, (3R)-N-{3-[5-(4-{3-[(4-{1-[2-(2,6-dioxopiperidin-3-yl)-1-oxo-2,3-dihydro-1H-isoindol-5-yl]piperidin-4-yl}piperazin-1-yl)methyl]azetidin-1-yl}phenyl)-1H-pyrrolo[2,3-b]pyridine-3-carbonyl]-2,4-difluorophenyl}-3-fluoropyrrolidine-1-sulfonamide]	< 5 nM	35 to 70%	1 to 10 nM	> 70%
CN(CCN1CCN(c2ccc3c(c2)CN(C2CCC(=O)NC2=O)C3=O)CC1)[C@H]1CC[C@H](Oc2ccc(-c3cnc4[nH]cc(C(=O)c5c(F)ccc(NS(=O)(=O)N6CC[C@@H](F)C6)c5F)c4c3)cc2)CC1 (stereo partly drawn) [Compound 145, (3R)-N-{2,4-difluoro-3-[5-(4-{[(1r,4r)-4-[(2-{4-[2-(2,6-dioxopiperidin-3-yl)-1-oxo-2,3-dihydro-1H-isoindol-5-yl]piperazin-1-yl}ethyl)(methyl)amino]cyclohexyl]oxy}phenyl)-1H-pyrrolo[2,3-b]pyridine-3-carbonyl]phenyl}-3-fluoropyrrolidine-1-sulfonamide]	5 to 50 nM	35 to 70%	1 to 10 nM	> 70%
O=C1CCC(N2Cc3cc(N4CCC(CN5CCN(Cc6ccc(-c7cnc8[nH]cc(C(=O)c9c(F)ccc(NS(=O)(=O)N%10CC[C@@H](F)C%10)c9F)c8c7)cc6)CC5)CC4)ccc3C2=O)C(=O)N1 (stereo partly drawn) [Compound 146, (3R)-N-{3-[5-(4-{[4-({1-[2-(2,6-dioxopiperidin-3-yl)-1-oxo-2,3-dihydro-1H-isoindol-5-yl]piperidin-4-yl}methyl)piperazin-1-yl]methyl}phenyl)-1H-pyrrolo[2,3-b]pyridine-3-carbonyl]-2,4-difluorophenyl}-3-fluoropyrrolidine-1-sulfonamide]	5 to 50 nM	35 to 70%	1 to 10 nM	> 70%
O=C1CCC(N2Cc3cc(CCOCCN4CCN(c5ccc(-c6cnc7[nH]cc(C(=O)c8c(F)ccc(NS(=O)(=O)N9CC[C@@H](F)C9)c8F)c7c6)cc5)CC4)ccc3C2=O)C(=O)N1 (stereo partly drawn) [Compound 148, (3R)-N-[3-(5-{4-[4-(2-{2-[2-(2,6-dioxopiperidin-3-yl)-1-oxo-2,3-dihydro-1H-isoindol-5-yl]ethoxy}ethyl)piperazin-1-yl]phenyl}-1H-pyrrolo[2,3-b]pyridine-3-carbonyl)-2,4-difluorophenyl]-3-fluoropyrrolidine-1-sulfonamide]	5 to 50 nM	35 to 70%	1 to 10 nM	> 70%
O=C1CCC(N2Cc3cc(CCOCCN4CCC(c5ccc(-c6cnc7[nH]cc(C(=O)c8c(F)ccc(NS(=O)(=O)N9CC[C@@H](F)C9)c8F)c7c6)cc5)CC4)ccc3C2=O)C(=O)N1 (stereo partly drawn) [Compound 151, (3R)-N-[3-(5-{4-[1-(2-{2-[2-(2,6-dioxopiperidin-3-yl)-1-oxo-2,3-dihydro-1H-isoindol-5-yl]ethoxy}ethyl)piperidin-4-yl]phenyl}-1H-pyrrolo[2,3-b]pyridine-3-carbonyl)-2,4-difluorophenyl]-3-fluoropyrrolidine-1-sulfonamide]	50 to 500 nM	35 to 70%	1 to 10 nM	> 70%

Further lines, results first:

DC50 [1]	Dmax [1]	DC50 [2]	Dmax [2]	SMILES
50 to 500 nM	35 to 70%	1 to 10 nM	35 to 70%	O=C1CCC(N2Cc3cc(CCCN4CC5(C4)CN(c4ncc(-c6cnc7[nH]cc(C(=O)c8c(F)ccc(NS(=O)(=O)N9CC[C@@H](F)C9)c8F)c7c6)cn4)C5)ccc3C2=O)C(=O)N1 (stereo partly drawn) [Compound 147, (3R)-N-(3-{5-[2-(6-{3-[2-(2,6-dioxopiperidin-3-yl)-1-oxo-2,3-dihydro-1H-isoindol-5-yl]propyl}-2,6-diazaspiro[3.3]heptan-2-yl)pyrimidin-5-yl]-1H-pyrrolo[2,3-b]pyridine-3-carbonyl}-2,4-difluorophenyl)-3-fluoropyrrolidine-1-sulfonamide]
50 to 500 nM	35 to 70%	1 to 10 nM	> 70%	O=C1CCC(N2Cc3cc(C4CCN(CCc5ccc(-c6cnc7[nH]cc(C(=O)c8c(F)ccc(NS(=O)(=O)N9CC[C@@H](F)C9)c8F)c7c6)cc5)[C@H](CO)C4)ccc3C2=O)C(=O)N1 (stereo partly drawn) [Compound 149, (3R)-N-{3-[5-(4-{2-[(2S)-4-[2-(2,6-dioxopiperidin-3-yl)-1-oxo-2,3-dihydro-1H-isoindol-5-yl]-2-(hydroxymethyl)piperidin-1-yl]ethyl}phenyl)-1H-pyrrolo[2,3-b]pyridine-3-carbonyl]-2,4-difluorophenyl}-3-fluoropyrrolidine-1-sulfonamide]
50 to 500 nM	35 to 70%	1 to 10 nM	> 70%	O=C1CCC(N2Cc3cc(C4CCN(CCc5ccc(-c6cnc7[nH]cc(C(=O)c8c(F)ccc(NS(=O)(=O)N9CC[C@@H](F)C9)c8F)c7c6)cc5)[C@@H](CO)C4)ccc3C2=O)C(=O)N1 (stereo partly drawn) [Compound 150, (3R)-N-{3-[5-(4-{2-[(2R)-4-[2-(2,6-dioxopiperidin-3-yl)-1-oxo-2,3-dihydro-1H-isoindol-5-yl]-2-(hydroxymethyl)piperidin-1-yl]ethyl}phenyl)-1H-pyrrolo[2,3-b]pyridine-3-carbonyl]-2,4-difluorophenyl}-3-fluoropyrrolidine-1-sulfonamide]
5 to 50 nM	35 to 70%	1 to 10 nM	> 70%	O=C1CCC(N2Cc3cc(N4CCN(CCc5ccc(-c6cnc7[nH]cc(C(=O)c8c(F)ccc(NS(=O)(=O)N9CC[C@@H](F)C9)c8F)c7c6)cc5)CC4)c(F)cc3C2=O)C(=O)N1 (stereo partly drawn) [Compound 152, (3R)-N-(3-{5-[4-(2-{4-[2-(2,6-dioxopiperidin-3-yl)-6-fluoro-1-oxo-2,3-dihydro-1H-isoindol-5-yl]piperazin-1-yl}ethyl)phenyl]-1H-pyrrolo[2,3-b]pyridine-3-carbonyl}-2,4-difluorophenyl)-3-fluoropyrrolidine-1-sulfonamide]
50 to 500 nM	> 70%	1 to 10 nM	> 70%	O=C1CCC(N2Cc3cc(N4CCC(CN5CCN(Cc6ncc(-c7cnc8[nH]cc(C(=O)c9c(F)ccc(NS(=O)(=O)N%10CC[C@@H](F)C%10)c9F)c8c7)cn6)CC5)CC4)ccc3C2=O)C(=O)N1 (stereo partly drawn) [Compound 153, (3R)-N-{3-[5-(2-{[4-({1-[2-(2,6-dioxopiperidin-3-yl)-1-oxo-2,3-dihydro-1H-isoindol-5-yl]piperidin-4-yl}methyl)piperazin-1-yl]methyl}pyrimidin-5-yl)-1H-pyrrolo[2,3-b]pyridine-3-carbonyl]-2,4-difluorophenyl}-3-fluoropyrrolidine-1-sulfonamide]
5 to 50 nM	35 to 70%	< 1 nM	> 70%	O=C1CCC(N2Cc3cc(N4CCC(CN5CCC(Cc6ccc(-c7cnc8[nH]cc(C(=O)c9c(F)ccc(NS(=O)(=O)N%10CC[C@@H](F)C%10)c9F)c8c7)cc6)CC5)CC4)ccc3C2=O)C(=O)N1 (stereo partly drawn) [Compound 154, (3R)-N-{3-[5-(4-{[1-({1-[2-(2,6-dioxopiperidin-3-yl)-1-oxo-2,3-dihydro-1H-isoindol-5-yl]piperidin-4-yl}methyl)piperidin-4-yl]methyl}phenyl)-1H-pyrrolo[2,3-b]pyridine-3-carbonyl]-2,4-difluorophenyl}-3-fluoropyrrolidine-1-sulfonamide]
